In ChEMBL document CHEMBL4265957, “The development of piperidinones as potent MDM2-P53 protein-protein interaction inhibitors for cancer therapy” (Eur J Med Chem, 2018):

Columns and labels:
[1] = molecular target: E3 ubiquitin-protein ligase Mdm2 (Homo sapiens, UniProt Q00987); assay: Inhibition of MDM2 (unknown origin)
SJSA-1 = assay: cells; details: Homo sapiens

Sequence of E3 ubiquitin-protein ligase Mdm2 (Q00987 whole entry): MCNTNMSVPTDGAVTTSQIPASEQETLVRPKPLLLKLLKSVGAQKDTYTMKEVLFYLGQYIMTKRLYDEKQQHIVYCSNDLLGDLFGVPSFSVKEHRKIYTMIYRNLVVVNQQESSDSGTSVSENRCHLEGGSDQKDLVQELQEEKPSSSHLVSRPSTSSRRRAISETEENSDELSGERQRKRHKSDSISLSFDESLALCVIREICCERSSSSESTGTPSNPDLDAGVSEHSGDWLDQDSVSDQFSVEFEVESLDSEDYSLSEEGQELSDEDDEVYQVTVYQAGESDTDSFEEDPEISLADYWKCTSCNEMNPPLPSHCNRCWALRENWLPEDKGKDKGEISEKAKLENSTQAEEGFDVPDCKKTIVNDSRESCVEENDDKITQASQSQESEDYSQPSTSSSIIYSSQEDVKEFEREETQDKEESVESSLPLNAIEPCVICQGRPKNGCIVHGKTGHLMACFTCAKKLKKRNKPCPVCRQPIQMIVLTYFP

Row | IC50 [1] [nM] | IC50 (SJSA-1) [nM] | SMILES
1 | 20 | – | Nc1ccn([C@@H]2O[C@H](CO)[C@@H](O)[C@@H]2O)c(=O)n1 [CYTARABINE]
2 | – | 5 | CN(C[C@H](C1CC1)N1C(=O)[C@@](C)(CC(=O)O)C[C@H](c2cccc(Cl)c2)[C@H]1c1ccc(Cl)cc1)S(=O)(=O)C1CC1
3 | 5.57 | – | CC1(C)CCC2(CC1)N[C@@H](C(=O)N[C@@H]1CC[C@@H](C(N)=O)OC1)[C@H](c1ccnc(Cl)c1F)[C@]21C(=O)Nc2cc(Cl)ccc21
